Patent US20160289186A1, “FLUOROMETHYL-SUBSTITUTED PYRROLE CA[…]” (Grunenthal GmbH, priority 2013, published 2016)

target: T1, Human CaV2.2 channels (Homo sapiens, UniProt Q00975); assay: Fluorescent (FLIPR) assay for CaV2.2 channels using potassium depolarization to induce channel opening; type: cell-based; details: 3 μM compound; 30 mM KCl assay buffer (inactivated channel state); HEK293 cells stably expressing human CaV2.2; read-out: Activity Category: %-Inhib (CaV2.2) @3 μM @30 mM KCl
T1 construct: expressed in transfected cells; host or cells: HEK293
Excerpt: In the process, the Ca^2+ influx is quantified in the FLIPR assay with the aid of a Ca^2+-sensitive dye (type Fluo-4, Molecular Probes Europe BV, Leiden, the Netherlands) in a fluorescent imaging plate reader (FLIPR 3, Molecular Devices, Sunnyvale, USA), as described hereinafter.
Human CaV2.2 channels were stably expressed in HEK293 cells together with alpha2-delta and beta subunits of voltage gated calcium channels. In addition, an inwardly rectifying potassium channel (Kir2.3) was stably expressed in these cells to augment control of the cell membrane potential by the concentration of extracellular potassium ions. Raise of the extracellular potassium concentration leads to depolarization of the membrane potential and thus regulates the voltage dependent state of CaV2.2 channels. For preparation, cells were seeded in black poly-D-lysine coated 96-well plates (Becton Dickinson, Biocoat 4640) in 100 μL medium [500 mL DMEM/F-12 plus Glutamax (Invitrogen 31331-093) plus 5.5 mL MEM NEAA 100× (Invitrogen 11140-035) plus 50 mL FBS decomplemented (Invitrogen 10270-106) plus 200 μg/mL Geneticin (Invitrogen 10131-027) plus 50 μg/mL Hygromycin B (Invitrogen 10687-010) plus 2 μg/mL Blasticidin (anti-bl5b Invivo-Gen) plus 0.2 μg/mL Puromycin (A 11138-03)] at a cell density of 30.000 cells per well. Plates were incubated at 37° C. (5% CO2) for 20 to 23 h. On the day of experiment medium was discarded and cells were loaded with Fluo 4 by addition of 100 μL of basic assay buffer (10 mM HEPES, 1 mM KCl, 149 mM NaCl, 0.8 mM CaCl2, 1.7 mM MgCl2, 10 mM Glucose, 0.1% BSA. pH 7.4) containing 2 μM Fluo 4 (Molecular Probes; F-14201), 0.01% pluronic acid (Molecular Probes; P-6866) and 2.5 mM probenecid (Molecular Probes; P36400). Cells were incubated in the dark at 25° C. for 60 min. Then dye containing buffer was discarded and 100 μL basic (1 mM KCl) or alternative (30 mM KCl) assay buffer was added. The alternative assay buffer contained altered concentrations of KCl (30 mM) and NaCl (120 mM) and was used in order to promote the inactivated channel state. After that 25 μL of basic or alternative assay buffer with or without test compound were added and cells were incubated again in the dark at 25° C. for 15 min. Fluorescence intensity was measured on a FLIPR 3 instrument (Molecular Devices Corp., Sunnyvale, Calif.) with excitation at 480 nm and emission at 535 nm. After continuously reading fluorescence for 30 sec, 50 μL of basic assay buffer containing 210 mM KCl (NaCl omitted) were added for depolarization. Peak fluorescent signal intensity was determined and the amplitude of the peak signal, normalized to base line, was used to measure channel inhibition by test compounds.

T1 sequence (Q00975 whole entry): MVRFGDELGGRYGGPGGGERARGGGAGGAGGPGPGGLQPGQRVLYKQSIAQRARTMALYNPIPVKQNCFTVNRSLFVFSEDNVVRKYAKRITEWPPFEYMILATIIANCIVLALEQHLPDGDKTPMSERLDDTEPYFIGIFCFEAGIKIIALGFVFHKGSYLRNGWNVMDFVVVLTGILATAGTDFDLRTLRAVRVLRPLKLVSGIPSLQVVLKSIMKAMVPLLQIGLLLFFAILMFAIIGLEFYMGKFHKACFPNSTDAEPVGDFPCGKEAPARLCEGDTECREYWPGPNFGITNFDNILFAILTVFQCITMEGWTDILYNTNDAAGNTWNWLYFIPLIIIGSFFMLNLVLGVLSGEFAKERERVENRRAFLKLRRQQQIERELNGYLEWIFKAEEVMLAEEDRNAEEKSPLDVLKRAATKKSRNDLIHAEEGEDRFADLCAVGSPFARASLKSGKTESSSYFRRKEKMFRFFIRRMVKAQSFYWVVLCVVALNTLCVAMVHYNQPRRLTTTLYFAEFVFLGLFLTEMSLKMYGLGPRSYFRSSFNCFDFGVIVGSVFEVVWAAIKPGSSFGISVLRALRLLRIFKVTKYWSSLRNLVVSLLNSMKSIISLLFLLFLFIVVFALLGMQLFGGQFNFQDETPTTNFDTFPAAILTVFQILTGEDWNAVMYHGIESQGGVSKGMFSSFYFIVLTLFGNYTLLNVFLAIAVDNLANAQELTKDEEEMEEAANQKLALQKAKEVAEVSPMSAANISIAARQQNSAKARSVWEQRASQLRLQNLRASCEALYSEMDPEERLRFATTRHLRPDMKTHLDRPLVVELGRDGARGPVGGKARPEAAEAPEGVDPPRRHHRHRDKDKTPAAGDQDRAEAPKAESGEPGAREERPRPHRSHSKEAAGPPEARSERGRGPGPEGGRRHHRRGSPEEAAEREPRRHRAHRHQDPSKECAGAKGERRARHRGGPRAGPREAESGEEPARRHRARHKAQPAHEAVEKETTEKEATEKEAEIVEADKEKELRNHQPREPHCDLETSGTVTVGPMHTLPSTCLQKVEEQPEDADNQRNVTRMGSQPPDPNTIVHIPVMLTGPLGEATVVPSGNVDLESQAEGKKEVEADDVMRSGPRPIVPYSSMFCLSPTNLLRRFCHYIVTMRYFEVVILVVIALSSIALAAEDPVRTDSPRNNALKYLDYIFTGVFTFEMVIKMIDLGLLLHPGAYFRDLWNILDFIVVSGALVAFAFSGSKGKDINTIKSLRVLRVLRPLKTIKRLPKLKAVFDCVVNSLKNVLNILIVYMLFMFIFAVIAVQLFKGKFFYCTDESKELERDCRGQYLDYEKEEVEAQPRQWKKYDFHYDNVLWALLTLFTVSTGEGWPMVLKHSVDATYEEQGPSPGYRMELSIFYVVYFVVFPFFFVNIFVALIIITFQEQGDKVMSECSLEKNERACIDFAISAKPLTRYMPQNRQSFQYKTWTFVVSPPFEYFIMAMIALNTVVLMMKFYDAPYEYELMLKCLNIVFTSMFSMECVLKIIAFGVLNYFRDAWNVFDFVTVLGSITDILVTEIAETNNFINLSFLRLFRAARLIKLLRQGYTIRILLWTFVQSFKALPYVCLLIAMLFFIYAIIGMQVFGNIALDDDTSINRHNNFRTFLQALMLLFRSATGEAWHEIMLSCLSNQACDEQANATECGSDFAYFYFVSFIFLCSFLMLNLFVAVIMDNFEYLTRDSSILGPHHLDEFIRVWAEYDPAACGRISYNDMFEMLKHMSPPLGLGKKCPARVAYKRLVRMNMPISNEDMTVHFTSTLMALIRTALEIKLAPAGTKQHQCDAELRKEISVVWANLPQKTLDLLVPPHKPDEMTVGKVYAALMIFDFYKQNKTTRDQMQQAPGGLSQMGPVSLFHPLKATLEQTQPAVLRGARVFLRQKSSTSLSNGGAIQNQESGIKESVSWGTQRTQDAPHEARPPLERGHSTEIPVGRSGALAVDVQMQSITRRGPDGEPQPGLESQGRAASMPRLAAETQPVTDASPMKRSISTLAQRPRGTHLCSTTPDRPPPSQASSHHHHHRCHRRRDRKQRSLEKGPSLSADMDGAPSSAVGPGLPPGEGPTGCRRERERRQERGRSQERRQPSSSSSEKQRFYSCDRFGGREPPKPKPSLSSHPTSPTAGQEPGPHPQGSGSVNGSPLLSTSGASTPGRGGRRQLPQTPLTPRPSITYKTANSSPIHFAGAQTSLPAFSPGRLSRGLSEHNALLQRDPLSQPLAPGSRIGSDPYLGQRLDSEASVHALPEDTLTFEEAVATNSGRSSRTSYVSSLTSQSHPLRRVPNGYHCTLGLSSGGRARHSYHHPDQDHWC
T1 sequence (P54284 whole entry, further chain): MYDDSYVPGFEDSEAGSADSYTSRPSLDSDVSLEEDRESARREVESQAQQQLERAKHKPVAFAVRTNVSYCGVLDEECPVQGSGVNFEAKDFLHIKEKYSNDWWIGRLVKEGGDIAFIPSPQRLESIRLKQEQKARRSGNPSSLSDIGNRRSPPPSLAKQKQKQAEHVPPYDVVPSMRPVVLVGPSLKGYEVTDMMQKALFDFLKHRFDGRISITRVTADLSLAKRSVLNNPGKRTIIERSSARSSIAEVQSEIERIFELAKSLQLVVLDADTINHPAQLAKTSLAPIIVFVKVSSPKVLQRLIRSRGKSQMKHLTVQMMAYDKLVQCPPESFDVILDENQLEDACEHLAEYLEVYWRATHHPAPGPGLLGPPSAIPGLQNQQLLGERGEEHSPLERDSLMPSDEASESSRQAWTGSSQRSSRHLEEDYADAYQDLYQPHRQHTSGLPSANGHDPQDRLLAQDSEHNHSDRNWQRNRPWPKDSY
T1 sequence (P54289 25-1103, further chain): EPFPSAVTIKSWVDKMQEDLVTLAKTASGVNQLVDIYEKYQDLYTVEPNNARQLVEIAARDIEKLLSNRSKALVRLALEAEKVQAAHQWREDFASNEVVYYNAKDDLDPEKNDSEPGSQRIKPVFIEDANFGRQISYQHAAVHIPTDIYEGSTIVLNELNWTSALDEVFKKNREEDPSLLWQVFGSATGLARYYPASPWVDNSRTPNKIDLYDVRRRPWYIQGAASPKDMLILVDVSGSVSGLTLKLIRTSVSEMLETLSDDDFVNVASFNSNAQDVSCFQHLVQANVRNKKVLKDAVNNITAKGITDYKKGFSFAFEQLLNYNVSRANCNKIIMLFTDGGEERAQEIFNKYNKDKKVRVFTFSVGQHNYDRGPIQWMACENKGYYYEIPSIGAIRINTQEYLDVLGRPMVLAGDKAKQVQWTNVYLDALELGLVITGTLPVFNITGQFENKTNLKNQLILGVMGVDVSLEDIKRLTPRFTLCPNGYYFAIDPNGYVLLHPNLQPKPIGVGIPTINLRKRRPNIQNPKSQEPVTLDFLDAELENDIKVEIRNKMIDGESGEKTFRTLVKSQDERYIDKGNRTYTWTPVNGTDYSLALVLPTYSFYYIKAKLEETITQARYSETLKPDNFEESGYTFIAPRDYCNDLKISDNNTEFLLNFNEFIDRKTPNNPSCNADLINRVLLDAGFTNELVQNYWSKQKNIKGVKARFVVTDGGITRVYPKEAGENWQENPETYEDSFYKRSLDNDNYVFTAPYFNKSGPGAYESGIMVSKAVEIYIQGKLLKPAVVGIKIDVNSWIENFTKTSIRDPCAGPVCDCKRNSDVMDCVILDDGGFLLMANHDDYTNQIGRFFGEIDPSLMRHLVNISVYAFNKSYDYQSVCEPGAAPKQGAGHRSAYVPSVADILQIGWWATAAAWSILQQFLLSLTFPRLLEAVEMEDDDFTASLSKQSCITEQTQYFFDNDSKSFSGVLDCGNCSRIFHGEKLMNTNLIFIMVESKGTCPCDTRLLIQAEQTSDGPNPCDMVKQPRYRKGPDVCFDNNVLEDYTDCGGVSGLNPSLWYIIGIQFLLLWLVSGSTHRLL

Row | SMILES | inhibition at 3 µM [%]
1 | O=C1CN(C(=O)c2c(-c3ccc(F)cc3)cc(C(F)(F)F)n2CC2CCCO2)CCN1 (stereo not drawn) [Example 079, 4-[3-(4-Fluorophenyl)-1-(tetrahydro-furan-2-yl-methyl)-5-(trifluoromethyl)-1H-pyrrole-2-carbonyl]-piperazin-2-one] | 40 to 75
2 | CN(Cc1cnc(N(C)C)nc1)C(=O)c1c(-c2ccc(F)cc2)cc(C(F)(F)F)n1CC1CCCO1 (stereo not drawn) [Example 069, N-[(2-Dimethylamino-pyrimidin-5-yl)-methyl]-3-(4-fluorophenyl)-N-methyl-1-(tetrahydro-furan-2-yl-methyl)-5-(trifluoromethyl)-1H-pyrrole-2-carboxylic acid amide] | 75 to 95
3 | Cc1c(-c2ccc(Cl)cc2)c(C(=O)N(Cc2ccccc2)C2CCOCC2)n(C)c1C(F)(F)F [Example 001, N-Benzyl-3-(4-chlorophenyl)-1,4-dimethyl-N-tetrahydro-pyran-4-yl-5-(trifluoromethyl)-1H-pyrrole-2-carboxylic acid amide] | 75 to 95
4 | CN(CC(C)(C)CO)C(=O)c1c(-c2ccc(Cl)cc2)cc(C(F)(F)F)n1C1CC1 [Example 036, 3-(4-Chlorophenyl)-1-cyclopropyl-N-(3-hydroxy-2,2-dimethyl-propyl)-N-methyl-5-(trifluoromethyl)-1H-pyrrole-2-carboxylic acid amide] | 75 to 95
5 | Cc1c(-c2ccc(Cl)cc2)c(C(=O)N(C)Cc2ccnn2C)n(C(C)C)c1C(F)(F)F [Example 111, 3-(4-Chlorophenyl)-1-isopropyl-N,4-dimethyl-N-[(2-methyl-2H-pyrazol-3-yl)-methyl]-5-(trifluoromethyl)-1H-pyrrole-2-carboxylic acid amide] | 75 to 95
6 | Cc1c(-c2ccc(Cl)cc2)c(C(=O)N2CCOCC2)n(C2CC2)c1C(F)(F)F [Example 043, [3-(4-Chlorophenyl)-1-cyclopropyl-4-methyl-5-(trifluoromethyl)-1H-pyrrol-2-yl]-morpholin-4-yl-methanone] | 75 to 95
7 | O=C(c1c(-c2ccc(F)cc2)cc(C(F)(F)F)n1CC1CCCO1)N1CCOCC1 (stereo not drawn) [Example 081, [3-(4-Fluorophenyl)-1-(tetrahydro-furan-2-yl-methyl)-5-(trifluoromethyl)-1H-pyrrol-2-yl]-morpholin-4-yl-methanone] | 40 to 75
8 | CC(C)Cn1c(C(F)(F)F)cc(-c2ccc(F)cc2)c1C(=O)N(C)CC(C)(C)C [Example 053, N-(2,2-Dimethyl-propyl)-3-(4-fluorophenyl)-N-methyl-1-(2-methyl-propyl)-5-(trifluoromethyl)-1H-pyrrole-2-carboxylic acid amide] | 40 to 75
9 | Cc1cc(CN(C)C(=O)c2c(-c3ncc(Cl)cn3)c(C)c(C(F)(F)F)n2C(C)C)no1 [Example 123, 3-(5-Chloro-pyrimidin-2-yl)-1-isopropyl-N,4-dimethyl-N-[(5-methyl-isoxazol-3-yl)-methyl]-5-(trifluoromethyl)-1H-pyrrole-2-carboxylic acid amide] | 75 to 95
10 | Cc1c(-c2ccc(Cl)cc2)c(C(=O)N2CCOC(C)(C)C2)n(C2CC2)c1C(F)(F)F [Example 032, [3-(4-Chlorophenyl)-1-cyclopropyl-4-methyl-5-(trifluoromethyl)-1H-pyrrol-2-yl]-(2,2-dimethyl-morpholin-4-yl)-methanone] | > 95
11 | Cc1c(-c2ccc(Cl)cc2)c(C(=O)N2CCN(C(=O)NC(C)(C)C)CC2)n(C(C)C)c1C(F)(F)F [Example 131, N-tert-Butyl-4-[3-(4-chlorophenyl)-1-isopropyl-4-methyl-5-(trifluoromethyl)-1H-pyrrole-2-carbonyl]-piperazine-1-carboxylic acid amide] | 75 to 95
12 | CN(CC(C)(C)C)C(=O)c1c(-c2ccc(Cl)cc2)cc(C(F)(F)F)n1C1CC1 [Example 035, 3-(4-Chlorophenyl)-1-cyclopropyl-N-(2,2-dimethyl-propyl)-N-methyl-5-(trifluoromethyl)-1H-pyrrole-2-carboxylic acid amide] | 40 to 75
13 | CN(C(=O)c1c(-c2ccc(F)cc2)cc(C(F)(F)F)n1CC1CCCO1)C1CCOCC1 (stereo not drawn) [Example 070, 3-(4-Fluorophenyl)-N-methyl-1-(tetrahydro-furan-2-yl-methyl)-N-tetrahydro-pyran-4-yl-5-(trifluoromethyl)-1H-pyrrole-2-carboxylic acid amide] | 75 to 95
14 | Cc1c(-c2ccc(Cl)cc2)c(C(=O)N2CCOC(C)(C)C2)n(CC2CC2)c1C(F)(F)F [Example 084, [3-(4-Chlorophenyl)-1-(cyclopropyl-methyl)-4-methyl-5-(trifluoromethyl)-1H-pyrrol-2-yl]-(2,2-dimethyl-morpholin-4-yl)-methanone] | > 95
15 | Cc1c(-c2ccc(Cl)cc2)c(C(=O)N(C)CC2CCOC2)n(C2CC2)c1C(F)(F)F (stereo not drawn) [Example 022, 3-(4-Chlorophenyl)-1-cyclopropyl-N,4-dimethyl-N-(tetrahydro-furan-3-yl-methyl)-5-(trifluoromethyl)-1H-pyrrole-2-carboxylic acid amide] | > 95
16 | Cc1c(-c2ccc(Cl)cc2)c(C(=O)N(C)C(C)C)n(C(C)C)c1C(F)(F)F [Example 108, 3-(4-Chlorophenyl)-N,1-diisopropyl-N,4-dimethyl-5-(trifluoromethyl)-1H-pyrrole-2-carboxylic acid amide] | > 95
17 | Cc1c(-c2ccc(Cl)cc2)c(C(=O)N(C)CC(C)(C)C#N)n(CC(C)C)c1C(F)(F)F [Example 067, 3-(4-Chlorophenyl)-N-(2-cyano-2-methyl-propyl)-N,4-dimethyl-1-(2-methyl-propyl)-5-(trifluoromethyl)-1H-pyrrole-2-carboxylic acid amide] | 40 to 75
18 | CN(C(=O)c1c(-c2ccc(F)cc2)cc(C(F)(F)F)n1CC1CCCO1)C1CCS(=O)(=O)C1 (stereo not drawn) [Example 071, N-(1,1-Dioxo-thiolan-3-yl)-3-(4-fluorophenyl)-N-methyl-1-(tetrahydro-furan-2-yl-methyl)-5-(trifluoromethyl)-1H-pyrrole-2-carboxylic acid amide] | 40 to 75
19 | Cc1c(-c2ncc(Cl)cn2)c(C(=O)N(C)C(C)C)n(C(C)C)c1C(F)(F)F [Example 128, 3-(5-Chloro-pyrimidin-2-yl)-N,1-diisopropyl-N,4-dimethyl-5-(trifluoromethyl)-1H-pyrrole-2-carboxylic acid amide] | 40 to 75
20 | Cc1c(-c2ncc(Cl)cn2)c(C(=O)N2CCOC(C)(C)C2)n(C(C)C)c1C(F)(F)F [Example 121, [3-(5-Chloro-pyrimidin-2-yl)-1-isopropyl-4-methyl-5-(trifluoromethyl)-1H-pyrrol-2-yl]-(2,2-dimethyl-morpholin-4-yl)-methanone] | 40 to 75
21 | Cc1c(-c2ccc(Cl)cc2)c(C(=O)N(C)CC(C)(C)O)n(C2CC2)c1C(F)(F)F [Example 018, 3-(4-Chlorophenyl)-1-cyclopropyl-N-(2-hydroxy-2-methyl-propyl)-N,4-dimethyl-5-(trifluoromethyl)-1H-pyrrole-2-carboxylic acid amide] | 75 to 95
22 | Cc1c(-c2ccc(Cl)cc2)c(C(=O)N(C)C2CCNC2=O)n(C(C)C)c1C(F)(F)F (stereo not drawn) [Example 115, 3-(4-Chlorophenyl)-1-isopropyl-N,4-dimethyl-N-(2-oxo-pyrrolidin-3-yl)-5-(trifluoromethyl)-1H-pyrrole-2-carboxylic acid amide] | 75 to 95
23 | CC(C)Cn1c(C(F)(F)F)cc(-c2ccc(F)cc2)c1C(=O)N1CCOCC1 [Example 065, [3-(4-Fluorophenyl)-1-(2-methyl-propyl)-5-(trifluoromethyl)-1H-pyrrol-2-yl]-morpholin-4-yl-methanone] | 75 to 95
24 | COc1ccc(CN(C)C(=O)c2c(-c3ccc(Cl)cc3)cc(C(F)(F)F)n2C2CC2)cc1 [Example 011, 3-(4-Chlorophenyl)-1-cyclopropyl-N-[(4-methoxyphenyl)-methyl]-N-methyl-5-(trifluoromethyl)-1H-pyrrole-2-carboxylic acid amide] | 75 to 95
